# Legend:
# [1] = system: field violet; assay: Test D preemergence; format: in vivo, Viola arvensis; conditions: scale 0 to 100
# Procedure, shortened: (§1)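 Pre: sown in silt loam, sprayed at once. Post: grown in peat-moss/vermiculite mix, sprayed at 1–4 leaves (2–18 cm). Formulation: non-phytotoxic solvent + surfactant. Read-out: visual 0–100 vs controls, 14–21 d.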
# [2] = system: mustard, wild; assay: Test D preemergence; format: in vivo, Sinapis arvensis; conditions: scale 0 to 100
# Procedure, shortened: as §1
# [3] = system: radish, wild; assay: Test D postemergence; format: in vivo, Raphanus raphanistrum; conditions: scale 0 to 100
# Procedure, shortened: as §1
# [4] = system: barley, spring; assay: Test D preemergence; format: in vivo, Hordeum vulgare; conditions: scale 0 to 100
# Procedure, shortened: as §1
# [5] = system: barley, winter; assay: Test D preemergence; format: in vivo, Hordeum vulgare; conditions: scale 0 to 100
# Procedure, shortened: as §1
# [6] = system: radish, wild; assay: Test D preemergence; format: in vivo, Raphanus raphanistrum; conditions: scale 0 to 100
# Procedure, shortened: as §1
# [7] = system: soybean; assay: Test F preemergence; format: in vivo, Glycine max
# Procedure, shortened: (§2)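 Pre- and postemergence applications used the same formulation, a non-phytotoxic solvent mixture including surfactant. Soil-applied treatment followed sowing into silt loam, whereas foliar treatment hit plants at the 1- to 4-leaf stage. Scores (0 = no effect, 100 = complete control) were assigned visually after 14–21 days.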
# [8] = system: deadnettle; assay: Test D postemergence; format: in vivo, Lamium amplexicaule; conditions: scale 0 to 100
# Procedure, shortened: as §1
# [9] = system: blackgrass; assay: Test D postemergence; format: in vivo, Alopecurus myosuroides; conditions: scale 0 to 100
# Procedure, shortened: as §1
# [10] = system: oilseed rape; assay: Test D preemergence; format: in vivo, Brassica napus; conditions: scale 0 to 100
# Procedure, shortened: as §1
# [11] = system: yellow nutsedge; assay: Test F preemergence; format: in vivo, Cyperus esculentus
# Procedure, shortened: as §2
# [12] = system: green foxtail; assay: Test F preemergence; format: in vivo, Setaria viridis
# Procedure, shortened: as §2
# [13] = system: fall panicum; assay: Test F preemergence; format: in vivo, Panicum dichotomiflorum
# Procedure, shortened: as §2
# [14] = system: velvetleaf; assay: Test F preemergence; format: in vivo, Abutilon theophrasti
# Procedure, shortened: as §2
# [15] = Preemergence, 62 g ai/ha, scale 0 to 100
# [16] = Preemergence, 125 g ai/ha, scale 0 to 100
# [17] = preemergence, 8 g ai/ha, scale 0 to 100, 100 is complete control
structure (smiles),measurement,setting,value
CCOc1cc(C(=O)NC(C)C)nn1Cc1ccnc(C(F)(F)F)c1 [Compound 188],"Plant response rating, Field Violet",[1]; 62 g ai/ha,100
same,"Plant response rating, Field Violet",[1]; 125 g ai/ha,100
same,"Plant response rating, Field Violet",[1]; 250 g ai/ha,100
same,"Plant response rating, Mustard, Wild",[2]; 62 g ai/ha,100
same,"Plant response rating, Mustard, Wild",[2]; 125 g ai/ha,100
same,"Plant response rating, Mustard, Wild",[2]; 250 g ai/ha,100
same,"Radish, Wild plant response rating","[3]; Postemergence, 31 g ai/ha",70
same,"Radish, Wild plant response rating","[3]; Postemergence, 125 g ai/ha",70
same,"Radish, Wild plant response rating","[3]; Postemergence, 250 g ai/ha",90
same,"Radish, Wild plant response rating","[3]; postemergence, 62 g ai/ha",70
same,"Plant response rating, Barley, Spring",[4]; 31 g ai/ha,65
same,"Plant response rating, Barley, Spring",[4]; 62 g ai/ha,75
same,"Plant response rating, Barley, Spring",[4]; 125 g ai/ha,85
same,"Plant response rating, Barley, Spring",[4]; 250 g ai/ha,95
same,"Plant response rating, Barley, Winter",[5]; 31 g ai/ha,35
same,"Plant response rating, Barley, Winter",[5]; 62 g ai/ha,70
same,"Plant response rating, Barley, Winter",[5]; 125 g ai/ha,80
same,"Plant response rating, Barley, Winter",[5]; 250 g ai/ha,100
same,"Plant response rating, Radish, Wild",[6]; 62 g ai/ha,100
same,"Plant response rating, Radish, Wild",[6]; 125 g ai/ha,100
same,"Plant response rating, Radish, Wild",[6]; 250 g ai/ha,100
same,"Plant response rating, Soybean",[7]; [15],30
same,"Plant response rating, Soybean",[7]; [16],85
same,"Plant response rating, Soybean",[7]; [17],0
same,Deadnettle plant response rating,"[8]; Postemergence, 31 g ai/ha",35
same,Deadnettle plant response rating,"[8]; Postemergence, 125 g ai/ha",45
same,Deadnettle plant response rating,"[8]; Postemergence, 250 g ai/ha",55
same,Deadnettle plant response rating,"[8]; postemergence, 62 g ai/ha",35
same,Blackgrass plant response rating,"[9]; Postemergence, 31 g ai/ha",15
same,Blackgrass plant response rating,"[9]; Postemergence, 125 g ai/ha",35
same,Blackgrass plant response rating,"[9]; Postemergence, 250 g ai/ha",45
same,Blackgrass plant response rating,"[9]; postemergence, 62 g ai/ha",15
same,"Plant response rating, Oilseed Rape",[10]; 62 g ai/ha,85
same,"Plant response rating, Oilseed Rape",[10]; 125 g ai/ha,100
same,"Plant response rating, Oilseed Rape",[10]; 250 g ai/ha,100
same,"Plant response rating, Yellow Nutsedge",[11]; [15],15
same,"Plant response rating, Yellow Nutsedge",[11]; [16],70
same,"Plant response rating, Yellow Nutsedge",[11]; [17],0
same,"Plant response rating, Green Foxtail",[12]; [15],100
same,"Plant response rating, Green Foxtail",[12]; [16],100
same,"Plant response rating, Green Foxtail",[12]; [17],5
same,"Plant response rating, Fall Panicum","[13]; Preemergence, 16 g ai/ha, scale 0 to 100",100
same,"Plant response rating, Fall Panicum",[13]; [15],100
same,"Plant response rating, Fall Panicum",[13]; [16],100
same,"Plant response rating, Fall Panicum",[13]; [17],75
same,"Plant response rating, Velvetleaf",[14]; [15],100
same,"Plant response rating, Velvetleaf",[14]; [16],100
same,"Plant response rating, Velvetleaf",[14]; [17],0
same,"Plant response rating, Velvetleaf","[14]; preemergence, scale 0 to 100, 100 is complete control",20

# — patent US20150105252A1, “SUBSTITUTED PYRAZOLES AS HERBICIDES” (E I DU PONT DE NEMOURS AND COMPANY, priority 2013, published 2015)
